Data taken from paper PMC12752606, “METTL10‐Mediated PIAS3 Methylation Links Purine Metabolism to Gastric Cancer Progression” (Advanced Science, 2025).
“And” between values parts separate entries of the source, which are not always exact repeats. Identical values can stand only once. Like-named read-outs stand apart in the source and are kept apart here.

Test: Plasma pharmacokinetics after IV and PO administration
Format: in vivo, male Sprague–Dawley rats
Settings: for concentration at 5 min / concentration at 0.25 h: male, Sprague-Dawley, rat, plasma, iv
Procedure: LZQ‐02‐023‐1 was administered to male Sprague–Dawley (SD) rats (n = 3 per group) via intravenous injection at a dose of 1 mg/kg or oral gavage at a dose of 10 mg/kg. Blood samples were collected at predetermined time points, and plasma concentrations of LZQ‐02‐023‐1 were determined using a validated LC‐MS/MS method. Briefly, working solutions of the analyte were prepared by diluting stock solutions with 50% acetonitrile in water to achieve serial concentrations (10, 20, 50, 100, 200, 500, 1000, 5000, and 10 000 ng/mL). Calibration standards were prepared by spiking 5 µL of working solution into 50 µL of blank SD rat plasma, resulting in final concentrations of 1, 2, 5, 10, 20, 50, 100, 500, and 1000 ng/mL in a total volume of 55 µL. Quality control (QC) samples were independently prepared at four concentrations (2, 5, 50, and 800 ng/mL) using blank SD rat plasma, following the same procedure as for the calibration standards. On the day of analysis, 55 µL of each calibration standard, QC sample, or unknown sample (prepared by mixing 50 µL of SD rat plasma with 5 µL of blank solution) was added to 200 µL of acetonitrile:methanol (1:1, v/v) containing an internal standard (IS) mixture for protein precipitation. The samples were vortexed for 30 s, centrifuged at 4000 rpm for 15 min at 4 °C, and the resulting supernatant was diluted threefold with water. A 10 µL aliquot of the diluted supernatant was injected into an AB Sciex Triple Quad 5500 LC‐MS/MS system for quantitative analysis. Pharmacokinetic parameters, including the maximum plasma concentration (Cmax), time to reach Cmax (Tmax), elimination half‐life (t1⁄2), area under the plasma concentration‐time curve (AUC0–t and AUC0–∞), clearance (CL), and volume of distribution (Vd), were calculated using noncompartmental analysis (NCA) in Phoenix WinNonlin 8.3 (Certara; Table S3, Supporting Information).

[1] = IV 1 mg/kg, individual rats R01-R03, 1 mg/kg
[2] = PO 10 mg/kg, individual rats R04-R06, 10 mg/kg

In the case of `Cc1ccc(Nc2ncc3c(n2)N(C)C(=O)N(c2cccc(N)c2)C3)cn1` [LZQ-02-023-01, Three‐(3‐aminophenyl)‐1‐methyl‐7‐((6‐methylpyridin‐3‐yl)amino)‐3,4‐dihydropyrimido [4,5‐d] pyrimidin‐2 (1H)‐one], the “AUC_%Extrap_obs, mean” value (IV 1 mg/kg) is reported as 1.09%, the “C0, mean” value (IV 1 mg/kg) is reported as 2250 ng/mL and the “Vss_obs, mean” value (IV 1 mg/kg) is reported as 0.660 L/kg. The Plasma concentration (IV 1 mg/kg, 5 min, individual rats R01-R03, 1 mg/kg) was 532 ng/mL and 563 ng/mL, the Plasma concentration (IV 1 mg/kg, 0.25 h, individual rats R01-R03, 1 mg/kg) was 35.5 ng/mL and 26.8 ng/mL and the Plasma concentration (IV 1 mg/kg, 0.5 h, individual rats R01-R03, 1 mg/kg) was 12.4 ng/mL and 16.0 ng/mL. The Plasma concentration (IV 1 mg/kg, 1 h, individual rats R01-R03, 1 mg/kg) was 4.29 ng/mL and 4.07 ng/mL, the Plasma concentration (IV 1 mg/kg, 2 h, individual rats R01-R03, 1 mg/kg) was 2.11 ng/mL and 1.86 ng/mL and the Plasma concentration (IV 1 mg/kg, 4 h, individual rats R01-R03) was “BLOQ (BLOQ = Below quantifiable limit of 1 ng/mL.)”. For the same compound, the Plasma concentration (IV 1 mg/kg, 8 h, individual rats R01-R03) was “BLOQ (BLOQ = Below quantifiable limit of 1 ng/mL.)”, the Plasma concentration (IV 1 mg/kg, 24 h, individual rats R01-R03) was “BLOQ (BLOQ = Below quantifiable limit of 1 ng/mL.)” and the AUCInf [1] was 170 ng·h/mL and 195 ng·h/mL. For the same compound, the AUC_%Extrap_obs [1] was 1.46% and 1.11% and 0.712%, the AUClast [1] was 169 ng·h/mL and 193 ng·h/mL and the C0 [1] was 2058 ng/mL and 2578 ng/mL. For the same compound, the Cl_obs [1] was 97.8 mL/min/kg and 85.6 mL/min/kg, the MRTInf_obs [1] was 7.2 min and 5.85 min and the T1/2 [1] was 37.4 min and 31 min. The Vss_obs [1] was 0.772 L/kg and 0.707 L/kg and 0.501 L/kg, the “AUC_%Extrap_obs, mean” value (PO 10 mg/kg) was 12.8% and the “F (bioavailability)” value (PO 10 mg/kg vs IV 1 mg/kg, individual rats R04-R06) was 2.37% and 1.27%. The Plasma concentration (PO 10 mg/kg, 0.25 h, individual rats R04-R06, 10 mg/kg) was 39.0 ng/mL and 24.0 ng/mL and 8.83 ng/mL, the Plasma concentration (PO 10 mg/kg, 0.5 h, individual rats R04-R06, 10 mg/kg) was 20.0 ng/mL and 20.1 ng/mL and the Plasma concentration (PO 10 mg/kg, 1 h, individual rats R04-R06, 10 mg/kg) was 7.33 ng/mL and 6.63 ng/mL and 3.54 ng/mL. The Plasma concentration (PO 10 mg/kg, 2 h, individual rats R04-R06, 10 mg/kg) was 3.36 ng/mL and 12.9 ng/mL and 3.14 ng/mL, the Plasma concentration (PO 10 mg/kg, 4 h, individual rats R04-R06, 10 mg/kg) was 2.02 ng/mL and 1.36 ng/mL and the Plasma concentration (PO 10 mg/kg, 8 h, individual rats R04-R06) was “BLOQ (BLOQ = Below quantifiable limit of 1 ng/mL.)”. For the same compound, the Plasma concentration (PO 10 mg/kg, 24 h, individual rats R04-R06) was “BLOQ (BLOQ = Below quantifiable limit of 1 ng/mL.)”, the AUCInf [2] was 42.0 ng·h/mL and 22.6 ng·h/mL and the AUC_%Extrap_obs [2] was 15.0% and 5.19% and 18.1%. For the same compound, the AUClast [2] was 27.6 ng·h/mL and 39.8 ng·h/mL and 18.5 ng·h/mL, the Cmax [2] was 24.0 ng/mL and 20.1 ng/mL and the MRTInf_obs [2] was 97.2 min and 134 min. The T1/2 [2] was 101 min and 44.9 min and 125 min, the Tmax [2] was 30 min and the concentration at 5 min (1 mg/kg, IV 1 mg/kg, 5 min, individual rats R01-R03, read-out: Plasma concentration) was 504 ng/mL. The concentration at 5 min (1 mg/kg, IV 1 mg/kg, 5 min, read-out: Plasma concentration, mean) was 533 ng/mL, the concentration at 0.25 h (1 mg/kg, IV 1 mg/kg, 0.25 h, individual rats R01-R03, read-out: Plasma concentration) was 28.6 ng/mL and the concentration at 0.25 h (1 mg/kg, IV 1 mg/kg, 0.25 h, read-out: Plasma concentration, mean) was 30.3 ng/mL.
